Assays:
[1] = biological target: T1, human PPARδ (Homo sapiens, UniProt Q03181); assay: Gal4-hybrid reporter gene assay, PPARδ activation; type: cell-based
T1 construct: expressed in transfected cells; host or cells: HEK293T
T1 sequence (Q03181 211-439 limits assumed): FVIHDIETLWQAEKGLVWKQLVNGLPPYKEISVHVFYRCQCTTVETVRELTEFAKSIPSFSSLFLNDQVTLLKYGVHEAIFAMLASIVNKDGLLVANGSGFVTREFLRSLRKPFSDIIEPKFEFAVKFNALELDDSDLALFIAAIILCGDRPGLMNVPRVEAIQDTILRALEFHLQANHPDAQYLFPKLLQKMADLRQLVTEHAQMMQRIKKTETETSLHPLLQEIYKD
Experimental: (§1) Compounds 1–3 were characterized in a hybrid reporter gene assay for their agoniztic effect on human nuclear receptors PPARα/γ/δ, RXRα, FXRα, RARα in HEK293T cells. Compound 1 was tested in an isothermal titration calorimetry (ITC) assay to measure direct binding affinity to the ligand-binding domain of PPARγ. ADME properties were measured in standardized assays at Roche.
PPAR activation was determined in uniform Gal4-hybrid reporter gene assays for the PPARα, PPARγ and PPARδ isoforms in HEK293T cells (German Collection of Microorganisms and Cell Culture GmbH, DSMZ) which were transiently transfected with pFR-Luc (Stratagene, La Jolla, CA, USA; reporter) and pRL-SV40 (Promega, Madison, WI, USA; internal control) and one pFA-CMV-hPPAR-LBD[97] clone, coding for the hinge region and ligand binding domain of the canonical isoform of human PPARα, PPARγ, PPARδ or respectively. Cells were cultured in Dulbecco’s modified Eagle’s medium (DMEM), high glucose supplemented with 10% fetal calf serum (FCS), sodium pyruvate (1 mM), penicillin (100 U ⋅ ml^-1), and streptomycin (100 μg ⋅ ml^-1) at 37 °C and 5% CO2 and seeded in 96-well plates (3 × 10^4 cells per well). After 24 h, medium was changed to Opti-MEM without supplements and cells were transiently transfected using Lipofectamine LTX reagent (Invitrogen) according to the manufacturer’s protocol. Five hours after transfection, cells were incubated with the test compounds in Opti-MEM supplemented with penicillin (100 U ⋅ ml^-1), streptomycin (100 μg ⋅ ml^-1) and 0.1% DMSO for 16 h before luciferase activity was measured using the Dual-Glo Luciferase Assay System (Promega) according to the manufacturer’s protocol on a Tecan Spark luminometer (Tecan Deutschland GmbH, Germany). Firefly luminescence was divided by Renilla luminescence and multiplied by 1000 resulting in relative light units (RLU) to normalize for transfection efficiency and cell growth. Fold activation was obtained by dividing the mean RLU of a test compound by the mean RLU of the untreated control. […]

[2] = biological target: CYP2C8 (Homo sapiens, UniProt P10632); assay: CYP inhibition dose-response; type: in vitro ADME; details: substrate AMODIAQUINE
CYP2C8, sequence (P10632 whole entry): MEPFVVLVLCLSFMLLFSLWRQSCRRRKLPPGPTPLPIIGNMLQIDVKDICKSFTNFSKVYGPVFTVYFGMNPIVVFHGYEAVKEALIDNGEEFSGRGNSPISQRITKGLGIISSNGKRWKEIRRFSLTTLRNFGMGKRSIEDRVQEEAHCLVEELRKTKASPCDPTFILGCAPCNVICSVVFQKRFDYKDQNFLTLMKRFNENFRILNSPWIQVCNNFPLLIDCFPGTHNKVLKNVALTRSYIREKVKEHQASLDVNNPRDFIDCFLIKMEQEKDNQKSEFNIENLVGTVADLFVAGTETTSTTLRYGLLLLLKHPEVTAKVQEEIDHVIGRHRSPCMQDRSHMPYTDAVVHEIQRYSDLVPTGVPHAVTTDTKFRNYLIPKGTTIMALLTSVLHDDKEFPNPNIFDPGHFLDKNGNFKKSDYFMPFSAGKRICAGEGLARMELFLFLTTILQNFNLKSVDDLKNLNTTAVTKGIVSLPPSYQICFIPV
Experimental: (§2) SI11Absorption Distribution Metabolism and Excretion and Toxicity Data
(§3) To assess the drug-like characteristics of the newly designed PPAR modulators, a series of tests were conducted covering various aspects of absorption, distribution, metabolism, and excretion (ADME) properties. Specifically, these assessments included the parallel artificial membrane permeability assay (PAMPA) with permeation co- […]
(§4) efficients ([…]), LogD measurements, microsomal clearance, hepatocyte clearance, P-glycoprotein (Pgp) efflux ratio and binding and the unbound free fraction. Furthermore, the evaluation of inhibition po-tential against cytochrome P450 isoenzymes (CYP) proteins was investigated. For seven selected CYP proteins (i.e., Cyp3A4, Cyp1A2, Cyp2B6, Cyp2C9, Cyp2D6, Cyp2C19, and Cyp2C8) the half maximal inhibitory con-centration (IC50) was determined. (Table S15). […]
(§5) activity in the CYP assays was found.
(§6) Table S14: Absorption distribution metabolism and excretion (ADME) properties of compounds 1 and 2. […]
(§7) The values for microsomal clearance and CYP-inhibition represent single point measurements. […]
(§8) Molecule Enzyme Substrate IC50 (µM)

[3] = biological target: CYP3A4 (Homo sapiens, UniProt P08684); assay: CYP inhibition dose-response; type: in vitro ADME; details: substrate MIDAZOLAM
CYP3A4, sequence (P08684 whole entry): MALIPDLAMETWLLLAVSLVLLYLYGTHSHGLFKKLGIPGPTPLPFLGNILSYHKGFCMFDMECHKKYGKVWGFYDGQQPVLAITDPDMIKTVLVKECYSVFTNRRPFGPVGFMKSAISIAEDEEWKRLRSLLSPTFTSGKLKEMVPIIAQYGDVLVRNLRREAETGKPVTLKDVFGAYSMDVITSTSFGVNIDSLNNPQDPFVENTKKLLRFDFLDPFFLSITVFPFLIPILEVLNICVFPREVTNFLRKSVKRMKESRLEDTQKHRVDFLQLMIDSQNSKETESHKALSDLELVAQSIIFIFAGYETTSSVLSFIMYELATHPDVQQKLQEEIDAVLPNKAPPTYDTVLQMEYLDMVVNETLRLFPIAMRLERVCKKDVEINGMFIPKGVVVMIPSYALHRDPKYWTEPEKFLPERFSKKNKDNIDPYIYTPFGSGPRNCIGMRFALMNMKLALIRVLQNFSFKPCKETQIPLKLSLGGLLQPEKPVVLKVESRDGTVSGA
Experimental: as §2, §3, §4, §5, §6, §7, §8

[4] = biological target: CYP2C9 (Homo sapiens, UniProt P11712); assay: CYP inhibition dose-response; type: in vitro ADME; details: substrate DICLOFENAC
CYP2C9, sequence (P11712 whole entry): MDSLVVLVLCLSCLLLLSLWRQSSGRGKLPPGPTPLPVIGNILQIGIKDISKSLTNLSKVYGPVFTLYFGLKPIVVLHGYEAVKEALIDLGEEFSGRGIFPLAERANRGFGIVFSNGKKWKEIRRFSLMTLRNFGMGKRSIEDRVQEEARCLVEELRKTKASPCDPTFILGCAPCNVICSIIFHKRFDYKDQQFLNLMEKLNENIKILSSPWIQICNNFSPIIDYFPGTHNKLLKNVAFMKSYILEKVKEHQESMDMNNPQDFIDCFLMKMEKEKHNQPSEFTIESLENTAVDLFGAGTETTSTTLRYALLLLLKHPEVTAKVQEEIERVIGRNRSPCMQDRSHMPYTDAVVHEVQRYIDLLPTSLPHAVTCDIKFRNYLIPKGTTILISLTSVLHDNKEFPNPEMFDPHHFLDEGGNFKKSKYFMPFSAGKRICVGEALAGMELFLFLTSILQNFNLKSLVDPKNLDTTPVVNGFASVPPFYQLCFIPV
Experimental: as §2, §3, §4, §5, §6, §7, §8

[5] = biological target: CYP2D6 (Homo sapiens, UniProt P10635); assay: CYP inhibition dose-response; type: in vitro ADME; details: substrate DEXTROMETHORPHAN
CYP2D6, sequence (P10635 whole entry): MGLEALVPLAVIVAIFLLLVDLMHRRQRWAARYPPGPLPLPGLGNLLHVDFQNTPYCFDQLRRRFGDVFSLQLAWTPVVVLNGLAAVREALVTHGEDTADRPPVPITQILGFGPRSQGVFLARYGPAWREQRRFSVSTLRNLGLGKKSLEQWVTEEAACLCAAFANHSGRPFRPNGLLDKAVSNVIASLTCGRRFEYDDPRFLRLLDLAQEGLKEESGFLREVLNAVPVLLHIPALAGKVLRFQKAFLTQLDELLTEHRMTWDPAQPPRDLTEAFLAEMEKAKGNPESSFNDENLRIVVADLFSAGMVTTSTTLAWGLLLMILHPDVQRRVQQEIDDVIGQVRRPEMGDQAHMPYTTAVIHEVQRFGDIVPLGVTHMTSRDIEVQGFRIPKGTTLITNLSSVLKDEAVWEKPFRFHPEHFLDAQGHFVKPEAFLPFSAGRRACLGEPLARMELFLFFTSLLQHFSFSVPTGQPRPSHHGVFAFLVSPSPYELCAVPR
Experimental: as §2, §3, §4, §5, §6, §7, §8

[6] = test system: NICOTINIC RECEPTOR, NEURONAL (α-BGTX insens.); assay: Safety off-target panel, binding; set-up: species or system Human; details: 10 µM, single point
Description: Table S9-S12 list all targets, their species, inhibition (%) and assay type for the experiments conducted in the
off-targets. […] The numbers for mean
inhibition (%) represent single point measurements.
off-targets. […] The numbers for
mean inhibition (%) represent single point measurements.

[7] = Parallel artificial membrane permeability assay (PAMPA); type: in vitro ADME; details: PAMPAPEFF permeation coefficient
Experimental: as §1, §2, §3
efficients ([…]), LogD measurements, microsomal clearance, hepatocyte clearance, P-glycoprotein (Pgp) efflux ratio and binding and the unbound free fraction. […]
Table S14: Absorption distribution metabolism and excretion (ADME) properties of compounds 1 and 2. The […]
values for […], LogD, protein binding, P-glycoprotein (Pgp) efflux ratio and permeability, and hepato-cyte clearance are presented as the mean and standard deviation, with a sample size of N = 3, i.e., 3 technical replicates each. The values for microsomal clearance and CYP-inhibition represent single point measurements. […]

Compound	activity on PPARδ ([1]; result in words)	IC50 [2] [µM]	IC50 [3] [µM]	IC50 [4] [µM]	IC50 [5] [µM]	Mean inhibition (%) [6] [%]	Papp [7] [×10⁻⁶ cm/s]	EC50 ([1]; HEK293T cells) [µM]
COc1ccc(Oc2ccc3ncn(CCOc4ccc(CCC(=O)O)cc4)c3c2)cc1 [Compound 2]	no discernible impact	1.75	> 20	> 20	> 20	-2.9	3.9	
Cc1nnc(-c2ccc(OCCCOc3ccc(CCC(=O)O)c(F)c3)c(F)c2)s1 [Compound 1]		> 20	> 20	> 20	> 20	-6.9		0.24 ± 0.05

Reference: publication PMC11035696, “Prospective de novo drug design with deep interactome learning” (Nature Communications, 2024)
